Assays:
EOL-1 = assay: IC50 (cell viability) (log10 M); conditions: 4 days
Summary of the method: (§1)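 Fourteen leukemia cell lines were seeded on 384-well plates coated with extracellular matrix, and drugs were added robotically the following day in duplicate at eight concentrations covering 4–5 logs within 10^–12–10^–4 M, with the range tailored to each drug. After 4 days, viability was read with CellTiter-Glo. Each table value is the concentration, in log10 M, at which a fitted four-parameter curve crosses 50% viability, or the highest tested concentration where that crossing is not reached. These values are reported as IC50.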

HL60 = assay: IC50 (cell viability) (log10 M); conditions: 4 days
Summary of the method: as §1

KASUMI1 = assay: IC50 (cell viability) (log10 M); conditions: 4 days
Summary of the method: as §1

KG1 = assay: IC50 (cell viability) (log10 M); conditions: 4 days
Summary of the method: as §1

MOLM/13 = assay: IC50 (cell viability) (log10 M); conditions: 4 days
Summary of the method: as §1

MOLM/16 = assay: IC50 (cell viability) (log10 M); conditions: 4 days
Summary of the method: as §1

MV4.11 = assay: IC50 (cell viability) (log10 M); conditions: 4 days
Summary of the method: as §1

NB4 = assay: IC50 (cell viability) (log10 M); conditions: 4 days
Summary of the method: as §1

OCI-AML2 = assay: IC50 (cell viability) (log10 M); conditions: 4 days
Summary of the method: as §1

OCI-AML3 = assay: IC50 (cell viability) (log10 M); conditions: 4 days
Summary of the method: as §1

PL-21 = assay: IC50 (cell viability) (log10 M); conditions: 4 days
Summary of the method: as §1

SKM1 = assay: IC50 (cell viability) (log10 M); conditions: 4 days
Summary of the method: as §1

THP-1 = assay: IC50 (cell viability) (log10 M); conditions: 4 days
Summary of the method: as §1

U937 = assay: IC50 (cell viability) (log10 M); conditions: 4 days
Summary of the method: as §1

AML190 = primary AML patient cells; assay: area under dose-response curve (cell viability), refractory AML patient cells (AUC (arbitrary, % viability x log concentration)); higher = less sensitive (more viable); conditions: 4 days; sample type: primary refractory AML patient cells
Summary of the method: (§2)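 Primary cells from 12 refractory AML patients on a clinical trial were run in the same high-throughput screen on extracellular-matrix-coated 384-well plates. Drugs were tested at eight concentrations within 10^–12–10^–4 M, in duplicate. Viability was read with CellTiter-Glo after 4 days. The value is the area under the fitted dose-response curve.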

AML223 = primary AML patient cells; assay: as above; conditions: 4 days; sample type: primary refractory AML patient cells
Summary of the method: as §2

AML.061 = primary AML patient cells; assay: area under dose-response curve (cell viability), primary AML patient cells (AUC (arbitrary, % viability x log concentration; ComBat batch-corrected)); higher = less sensitive (more viable); conditions: 4 days; sample type: primary AML patient cells
Summary of the method: (§3)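 Before testing, primary AML cells were DNase-thawed, cultured 48 h in IMDM with horse serum, fetal calf serum and low stem cell factor, and enriched for blasts. On extracellular-matrix-coated 384-well plates at 5000 cells/well, they received drugs the next day at eight concentrations within 10^–12–10^–4 M, in duplicate, and CellTiter-Glo viability was recorded after 4 days. The endpoint was area under the fitted four-parameter curve, corrected for batch using ComBat.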

AML.074 = primary AML patient cells; assay: as above; conditions: 4 days; sample type: primary AML patient cells
Summary of the method: as §3

AML.077 = primary AML patient cells; assay: as above; conditions: 4 days; sample type: primary AML patient cells
Summary of the method: as §3

AML010 = primary AML patient cells; assay: as above; conditions: 4 days; sample type: primary AML patient cells
Summary of the method: as §3

Compound	IC50 (log10 M) (EOL-1)	IC50 (log10 M) (HL60)	IC50 (log10 M) (KASUMI1)	IC50 (log10 M) (KG1)	IC50 (log10 M) (MOLM/13)	IC50 (log10 M) (MOLM/16)	IC50 (log10 M) (MV4.11)	IC50 (log10 M) (NB4)	IC50 (log10 M) (OCI-AML2)	IC50 (log10 M) (OCI-AML3)	IC50 (log10 M) (PL-21)	IC50 (log10 M) (SKM1)	IC50 (log10 M) (THP-1)	IC50 (log10 M) (U937)	area under dose-response curve (AML190)	area under dose-response curve (AML223)	area under dose-response curve (AML.061)	area under dose-response curve (AML.074)	area under dose-response curve (AML.077)	area under dose-response curve (AML010)
CN1CCC(COc2cnc(-c3cccc(Cn4nc(-c5cccc(C#N)c5)ccc4=O)c3)nc2)CC1	> -5	> -5	> -5	> -5	> -5	> -5	> -5	> -5	> -5	> -5	> -5	> -5	> -5	> -5	643	613	≤ 613	739	684	781
COc1cc(OC)c(/C=C/S(=O)(=O)Cc2ccc(OC)c(NCC(=O)O)c2)c(OC)c1	-7.51	-6.93	-6.87	-7	-7.17	-7.73	-7.3	-7.28	-7.47	-7.72	-7.41	-7.05	-7.33	-7.57	577	469	746	622	607	691
C[C@@]1(C(=O)Nc2ccc(F)nc2)CCCN1c1nc(Nc2cc(C3CC3)n[nH]2)c2cccn2n1	-6.59	-7.3	-6.88	-6.35	-6.18	-6.78	-6.27	-6.61	-6.15	-5.81	-7.16	-6.18	-5.79	-6.61	657	515	698	603	592	683
Cc1ccc(C(=O)Nc2ccc(CN3CCN(C)CC3)c(C(F)(F)F)c2)cc1C#Cc1cnc2cccnn12	< -9.34	-6.17	-6.5	-7.98	-8.29	-6.82	-8.82	-6.12	-6.41	-6.28	-6.11	-6.04	-6.06	-6.07	272	371	569	≤ 352	537	511
NC(=O)[C@@H](CCC(F)(F)F)N(Cc1ccc(-c2ncon2)cc1F)S(=O)(=O)c1ccc(Cl)cc1	> -5	> -5	> -5	> -5	> -5	> -5	> -5	> -5	> -5	> -5	> -5	> -5	> -5	> -5	608	646	858	667	636	754
C[C@]1(c2nc3c(C(N)=O)cccc3[nH]2)CCCN1 [ABT-888]	> -5	> -5	> -5	> -5	> -5	> -5	> -5	> -5	> -5	> -5	> -5	> -5	> -5	> -5	583	465	754	652	661	681
CC(C)(C)c1cc(NC(=O)Nc2ccc(-c3cn4c(n3)sc3cc(OCCN5CCOCC5)ccc34)cc2)no1 [AC-220]	< -9.34	-6.01	-6.48	> -6	-9.03	> -6	< -9.34	> -6	-6	-6.01		> -6	-6.01	-6.37	541	375	688	≤ 332	577	572
O=C1NC(=O)[C@@H](c2cn3c4c(cccc24)CCC3)[C@@H]1c1c[nH]c2ccccc12 [ARQ-197]	-6.74	-6.37	-6.31	-6.48	-6.57	-7.26	-6.32	-6.94	-6.23	-6.51	-6.31	-6.24	-6.66	-7.23	548	481	679	574	715	650
CCN(CC)CCCC(C)Nc1c2ccc(Cl)cc2nc2ccc(OC)cc12 (configuration not stated) [Acrichine]	-5.82	-5.35	-5.52	-5.44	-5.57	-5.52	-5.79	-5.46	-5.69	-5.45	-5.46	-5.47	-5.33	-5.48	490	501	≤ 622	701	644	751
Nc1cc(C(F)(F)F)c(-c2cc(N3CCOCC3)nc(N3CCOCC3)n2)cn1 [BKM-120]	-6.36	-5.74	-5.95	-5.83	-5.82	-6.53	-5.78	-5.9	-5.74	-5.84	-5.86	-5.8	-5.85	-6.45	585	554	735	688	≤ 584	724
NC(=O)c1ccc(I)c([N+](=O)[O-])c1 [BSI-201]	> -5	> -5	> -5	> -5	> -5	> -5	> -5	> -5	> -5	> -5	> -5	> -5	> -5	> -5	735	677	699	680	690	770
CC(C)C[C@H](NC(=O)[C@H](Cc1ccccc1)NC(=O)c1cnccn1)B(O)O [Bortezomib]	-8.29	-8.05	-8.06	-8.25	-8.37	-8.07	-8.1	-8.38	-8.06	-8.3	-8.04	-8.6	-8.06	-8.32	224	237	257	317	320	328
CS(=O)(=O)OCCCCOS(C)(=O)=O [Busulfan]	-5.23	> -5	> -5	> -5	> -5	> -5	-5.24	> -5	> -5	> -5	> -5	> -5	> -5	> -5	582	645	654	629	670	714
COc1cc2nccc(Oc3ccc(NC(=O)NC4CC4)c(Cl)c3)c2cc1C(N)=O [E7080]	-7.74	> -5	-5.24		-5.98	> -5	-5.91	> -5	> -5	> -5	> -5	> -5	> -5	> -5	540	551	573	573	628	754
COc1cc([C@@H]2c3cc4c(cc3[C@@H](O[C@@H]3O[C@@H]5CO[C@@H](C)O[C@H]5[C@H](O)[C@H]3O)[C@H]3COC(=O)[C@H]23)OCO4)cc(OC)c1O [Etoposide]	-8.33	-5.78	-5.78	-5.49	-7.76	-6.42	-8.2	-7.71		-6.58	-5.67	-7.22	-5.97	-7.62	596	683	699	≤ 477	656	708
CN1CC[C@H](c2c(O)cc(O)c3c(=O)cc(-c4ccccc4Cl)oc23)[C@H](O)C1 [Flavopiridol]	-7.2	-7.12	-7.17		-7.27	-7.4	-7.35	-6.96	-7.46	-7.03	-7.47		-7.14	-7.41	475	348	497	434	489	522
CS(=O)(=O)N1CCN(Cc2cc3nc(-c4cccc5[nH]ncc45)nc(N4CCOCC4)c3s2)CC1 [GDC-0941]	-6.95	-6.46	-7.01	-5.35	-5.8		-6.15	-5.49	-5.68	-6	-6.77	-6.37	-5.71	-6.26	579	508	576	620	≤ 511	642
O=NN(CCCl)C(=O)NC1CCCCC1 [Lomustine]															655	307	767	718	745	791
NC1(c2ccc(-c3nc4ccn5c(=O)[nH]nc5c4cc3-c3ccccc3)cc2)CCC1 [MK2206]	-6.28	-5.37	-5.83		-5.62	-6.21	-5.66	-5.23	-5.45	-5.42	-6.09	-5.76	-5.31	-7.93	500	506	644	629	≤ 495	644
O=C1c2c(O)ccc(O)c2C(=O)c2c(NCCNCCO)ccc(NCCNCCO)c21 [Mitoxantrone]	< -9.48	-7.83		-7.61	-9.18	-8.65	< -9.48	-9.01	-9.21	-8.3	-7.76	-8.57	-8.04	-9.09	375	510	438	≤ 164	372	477
COC1=CC(c2cc3ccccc3[nH]2)=N/C1=C\c1[nH]c(C)cc1C [Obatoclax]	-7.65	-7.59	-8.02	-7.72	-7.47	-7.04	-7.27	-7.77	-7.77	-7.55	-7.66	-6.64		-7.45	564	636	609	≤ 433	524	≥ 662

Reference: the supplement of paper PMC5752671
